Legend:
Type in all cases: in vivo, rabbit
[1] = tested on: six-month old female rabbits; assay: Bone mineral densities of tibiae of rabbits (Working Example 2); conditions: 4 weeks; for Bone mineral densities in proximal part (1/5 site) of the tibiae: 140 μg/kg per week; for Bone mineral densities in the proximal part (1/5 site) of the tibiae: weekly dosage 140 μg/kg
Experimental: (§1) To evaluate the influences of the administration frequencies of teriparatide on the bone metabolism and the bone tissue morphology, six-month old female rabbits were subcutaneously administered with an agent in a manner that a weekly dosage of teriparatide was adjusted to 140 μg/kg at a frequency of once a week, twice a week or seven times a week over 4 weeks, or with a control drug without containing teriparatide at a frequency of seven times a week over 4 weeks (Table 2-54). Also, the bone mineral density and the bone strength of the tibiae were measured. The teriparatide solution which was administered was appropriately prepared by dissolving teriparatide acetate in a water for injection, filtering the solution, filling the filtrate in a vial, freeze-drying to give a preparation, and dissolving the preparation in a physiological saline upon use.
The bone mineral densities of the tibiae were analyzed in divided regions.

[2] = tested on: six-month old female rabbits; assay: Bone strength of tibiae of rabbits, three-point bending strength; conditions: for Maximum load, bone strength of tibiae: 140 μg/kg per week, subcutaneous, 4 weeks; for Maximum load, three-point bending strength of the tibiae: versus control group
Experimental: as §1
Three-point bending strength of the tibiae collected after the end of the administration period was measured.

[3] = tested on: six-month old female rabbits; assay: Bone tissue morphology of diaphysis of tibiae of rabbits
Experimental: as §1

[4] = group administered twice a week
[5] = group administered seven times a week

CC[C@H](C)[C@H](NC(=O)[C@H](CCC(=O)O)NC(=O)[C@H](CO)NC(=O)[C@@H](NC(=O)[C@@H](N)CO)C(C)C)C(=O)N[C@@H](CCC(N)=O)C(=O)N[C@@H](CC(C)C)C(=O)N[C@@H](CCSC)C(=O)N[C@@H](Cc1cnc[nH]1)C(=O)N[C@@H](CC(N)=O)C(=O)N[C@@H](CC(C)C)C(=O)NCC(=O)N[C@@H](CCCCN)C(=O)N[C@@H](Cc1cnc[nH]1)C(=O)N[C@@H](CC(C)C)C(=O)N[C@@H](CC(N)=O)C(=O)N[C@@H](CO)C(=O)N[C@@H](CCSC)C(=O)N[C@@H](CCC(=O)O)C(=O)N[C@@H](CCCN=C(N)N)C(=O)N[C@H](C(=O)N[C@@H](CCC(=O)O)C(=O)N[C@@H](Cc1c[nH]c2ccccc12)C(=O)N[C@@H](CC(C)C)C(=O)N[C@@H](CCCN=C(N)N)C(=O)N[C@@H](CCCCN)C(=O)N[C@@H](CCCCN)C(=O)N[C@@H](CC(C)C)C(=O)N[C@@H](CCC(N)=O)C(=O)N[C@@H](CC(=O)O)C(=O)N[C@H](C(=O)N[C@@H](Cc1cnc[nH]1)C(=O)N[C@@H](CC(N)=O)C(=O)N[C@@H](Cc1ccccc1)C(=O)O)C(C)C)C(C)C [teriparatide]
Bone mineral densities in proximal part (1/5 site) of the tibiae ([1]; Group administered once a week, subcutaneous): 272.5 ± 13.6 mg/cm^2 | Bone mineral densities in proximal part (1/5 site) of the tibiae ([1]; Group administered twice a week, subcutaneous): 278.8 ±9.8 mg/cm^2 | Bone mineral densities in the proximal part (1/5 site) of the tibiae [1, 4]: higher value than that of the group administered once a week | Bone mineral densities in the proximal part (1/5 site) of the tibiae ([1]; subcutaneous, as compared to control group): remarkably increased | Maximum load, bone strength of tibiae ([2]; Group administered once a week): 583.81 N | Maximum load, bone strength of tibiae ([2]; Group administered seven times a week): 656.09 N | Maximum load, bone strength of tibiae ([2]; Group administered twice a week): 624.41 N | Maximum load, three-point bending strength of the tibiae [2, 5]: higher values | Maximum load, three-point bending strength of the tibiae [2, 4]: higher values | Bone tissue morphology of diaphysis of tibiae ([3]; group administered once a week): none of these findings were observed | Bone tissue morphology of diaphysis of tibiae [3, 5]: formation of trabecular bones on the endocortical surfaces, a large number of intracortical voids (increase of cortical porosity), and disorderedness in a lamellar structure were observed | Bone tissue morphology of diaphysis of tibiae [3, 4]: none of these findings were observed
